Source: ChEMBL document CHEMBL1201862, “PubChem BioAssay data set” (2004)
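Interpolation was linear, between the two tested concentrations surrounding the appropriate level; five concentrations were tested over 48 hours in 96-well plates. GI50 is the concentration that inhibits growth by half.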 Active and inactive are the calls of the source. Rule as the data show it: active = GI50 up to about 1.1 µM and inactive = higher.

Key:
Experiment in all cases: inhibition of tumour cell growth, NCI panel, 48 h
[1] = test system: 786-0
[2] = test system: A498
[3] = test system: A549
[4] = test system: ACHN
[5] = test system: BT-549
[6] = test system: CAKI-1
[7] = test system: CCRF-CEM
[8] = test system: COLO 205
[9] = test system: DLD-1
[10] = test system: DMS-114
[11] = test system: DMS-273
[12] = test system: DU-145
[13] = test system: EKVX
[14] = test system: HCC 2998
[15] = test system: HCT-116
[16] = test system: HCT-15
[17] = test system: HL-60
[18] = test system: HOP-62
[19] = test system: HOP-92
[20] = test system: HT-29
[21] = test system: Hs-578T
[22] = test system: IGROV-1
[23] = test system: K562
[24] = test system: KM-20L2
[25] = test system: KM12
[26] = test system: LOX IMVI
[27] = test system: LXFL 529
[28] = test system: M14
[29] = test system: M19-MEL
[30] = test system: MCF7
[31] = test system: MDA-MB-231
[32] = test system: MDA-N
[33] = test system: MOLT-4
[34] = test system: Malme-3M
[35] = test system: NCI-H226
[36] = test system: NCI-H23
[37] = test system: NCI-H460
[38] = test system: NCI-H522
[39] = test system: OVCAR-3
[40] = test system: OVCAR-4
[41] = test system: OVCAR-5
[42] = test system: OVCAR-8
[43] = test system: PC-3
[44] = test system: RPMI-8226
[45] = test system: RXF 393
[46] = test system: RXF 631
[47] = test system: SF-268
[48] = test system: SF-295
[49] = test system: SF-539
[50] = test system: SK-MEL-28
[51] = test system: SK-MEL-2
[52] = test system: SK-MEL-5
[53] = test system: SK-OV-3
[54] = test system: SN12C
[55] = test system: SNB-19
[56] = test system: SNB-75
[57] = test system: SNB-78
[58] = test system: SR
[59] = test system: SW-620
[60] = test system: T47D
[61] = test system: TK-10
[62] = test system: U-251
[63] = test system: UACC-257
[64] = test system: UACC-62
[65] = test system: UO-31
[66] = test system: XF498
[67] = test system: HOP-18

SMILES: COc1ccc2c(=O)c(-c3cc(OC)c(OC)cc3OC)coc2c1
- GI50 [1]: 4.11 µM (inactive)
- GI50 [2]: 8.45 µM (inactive)
- GI50 [3]: 5.41 µM (inactive)
- GI50 [4]: > 82.8 µM (inactive)
- GI50 [5]: > 100 µM (inactive)
- GI50 [6]: 3.01 µM (inactive)
- GI50 [7]: 1.56 µM (inactive)
- GI50 [8]: 3.32 µM (inactive)
- GI50 [9]: 3.95 µM (inactive)
- GI50 [10]: 3.02 µM (inactive)
- GI50 [11]: 1.85 µM (inactive)
- GI50 [12]: 2.86 µM (inactive)
- GI50 [13]: 36.1 µM (inactive)
- GI50 [14]: 2.94 µM (inactive)
- GI50 [15]: 2.28 µM (inactive)
- GI50 [16]: 1.24 µM
- GI50 [17]: 0.735 µM (active)
- GI50 [18]: 3.72 µM (inactive)
- GI50 [19]: 1.81 µM (inactive)
- GI50 [20]: 2.35 µM (inactive)
- GI50 [21]: 1.98 µM (inactive)
- GI50 [22]: 19.2 µM (inactive)
- GI50 [23]: 1.11 µM (active)
- GI50 [24]: 2.05 µM (inactive)
- GI50 [25]: 2.74 µM (inactive)
- GI50 [26]: 5.51 µM (inactive)
- GI50 [27]: 6.27 µM (inactive)
- GI50 [28]: 4.49 µM (inactive)
- GI50 [29]: 4.15 µM (inactive)
- GI50 [30]: 0.778 µM (active)
- GI50 [31]: > 100 µM (inactive)
- GI50 [32]: 0.262 µM (active)
- GI50 [33]: 2 µM (inactive)
- GI50 [34]: 4.54 µM (inactive)
- GI50 [35]: > 43.2 µM (inactive)
- GI50 [36]: 8.67 µM (inactive)
- GI50 [37]: 2.48 µM (inactive)
- GI50 [38]: 1.28 µM (inactive)
- GI50 [39]: 1.84 µM (inactive)
- GI50 [40]: > 100 µM (inactive)
- GI50 [41]: > 100 µM (inactive)
- GI50 [42]: 9.73 µM (inactive)
- GI50 [43]: 4.16 µM (inactive)
- GI50 [44]: 2.35 µM (inactive)
- GI50 [45]: 2.45 µM (inactive)
- GI50 [46]: 5.4 µM (inactive)
- GI50 [47]: 4.73 µM (inactive)
- GI50 [48]: 1.66 µM (inactive)
- GI50 [49]: 3.3 µM (inactive)
- GI50 [50]: 3.65 µM (inactive)
- GI50 [51]: 2.27 µM (inactive)
- GI50 [52]: 1.55 µM (inactive)
- GI50 [53]: 3.02 µM (inactive)
- GI50 [54]: 13.3 µM (inactive)
- GI50 [55]: 15.3 µM (inactive)
- GI50 [56]: 2.26 µM (inactive)
- GI50 [57]: 4.21 µM (inactive)
- GI50 [58]: 1.27 µM (inactive)
- GI50 [59]: 2.33 µM (inactive)
- GI50 [60]: 6.7 µM (inactive)
- GI50 [61]: 31.5 µM (inactive)
- GI50 [62]: 2.19 µM (inactive)
- GI50 [63]: 11.3 µM (inactive)
- GI50 [64]: 1.97 µM (inactive)
- GI50 [65]: 34 µM (inactive)
- GI50 [66]: 2.58 µM (inactive)

SMILES: CN(C)C(=S)/N=c1\ssc(=S)n1C
- GI50 [1]: > 100 µM (inactive)
- GI50 [2]: > 100 µM (inactive)
- GI50 [3]: > 100 µM (inactive)
- GI50 [4]: > 100 µM (inactive)
- GI50 [6]: > 100 µM (inactive)
- GI50 [7]: > 100 µM (inactive)
- GI50 [9]: > 100 µM (inactive)
- GI50 [10]: > 100 µM (inactive)
- GI50 [11]: > 100 µM (inactive)
- GI50 [13]: > 100 µM (inactive)
- GI50 [14]: > 100 µM (inactive)
- GI50 [15]: > 100 µM (inactive)
- GI50 [16]: > 100 µM
- GI50 [17]: > 100 µM (inactive)
- GI50 [67]: > 100 µM (inactive)
- GI50 [18]: > 100 µM (inactive)
- GI50 [19]: > 100 µM (inactive)
- GI50 [20]: > 100 µM (inactive)
- GI50 [22]: > 100 µM (inactive)
- GI50 [23]: > 100 µM (inactive)
- GI50 [24]: > 100 µM (inactive)
- GI50 [25]: > 100 µM (inactive)
- GI50 [27]: > 100 µM (inactive)
- GI50 [28]: > 100 µM (inactive)
- GI50 [29]: > 100 µM (inactive)
- GI50 [33]: > 100 µM (inactive)
- GI50 [34]: > 100 µM (inactive)
- GI50 [35]: > 100 µM (inactive)
- GI50 [36]: > 100 µM (inactive)
- GI50 [37]: > 100 µM (inactive)
- GI50 [38]: > 100 µM (inactive)
- GI50 [40]: > 100 µM (inactive)
- GI50 [41]: > 100 µM (inactive)
- GI50 [42]: > 100 µM (inactive)
- GI50 [44]: > 100 µM (inactive)
- GI50 [45]: > 100 µM (inactive)
- GI50 [46]: > 100 µM (inactive)
- GI50 [47]: > 100 µM (inactive)
- GI50 [48]: > 100 µM (inactive)
- GI50 [49]: > 100 µM (inactive)
- GI50 [50]: > 100 µM (inactive)
- GI50 [51]: > 100 µM (inactive)
- GI50 [52]: > 100 µM (inactive)
- GI50 [53]: > 100 µM (inactive)
- GI50 [54]: > 100 µM (inactive)
- GI50 [55]: > 100 µM (inactive)
- GI50 [56]: > 100 µM (inactive)
- GI50 [57]: > 100 µM (inactive)
- GI50 [58]: > 100 µM (inactive)
- GI50 [59]: > 100 µM (inactive)
- GI50 [61]: > 100 µM (inactive)
- GI50 [62]: > 100 µM (inactive)
- GI50 [63]: > 100 µM (inactive)
- GI50 [64]: > 100 µM (inactive)
- GI50 [65]: > 100 µM (inactive)
- GI50 [66]: > 100 µM (inactive)
